{"source": "patent EP4624482A1", "about": "“PYRIMIDOPYRIMIDINONE COMPOUND AND PHARMACEUTICAL COMPOSITION COMPRISING SAME” (Axceso Biopharma Co., Ltd., priority 2022, dated 2024)", "key": {"SIRT1": {"system": "SIRT1", "experiment": "SIRT1 expression in mouse vascular cells", "type": "cell-based"}, "SH-SY5Y cell lines": {"system": "SH-SY5Y cell lines", "experiment": "Proliferation of SH-SY5Y cells (Parkinson's disease cell model), EZ-cytox", "type": "cell-based, human", "details": "5 days", "description": "A medium containing DMEM/F12 (Hyclone), 10% FBS (Hyclone), and 1% penicillin-streptomycin (Hyclone) was used, and the medium was replaced every two days after seeding on a T75 plate. Subculture was performed when the cell density was 80-90%.\nThen, to determine the neuronal proliferation effect, the subcultured SH-SY5Y cells were seeded in 96 wells at 5 × 10^3 cells/well. After 1 day, the medium was replaced with a 5% FBS ratio, and the cells were treated with the compound of formula (1a-1) at concentrations serially diluted 2-fold from 500 nM to 15.6 nM and cultured for 5 days. The medium was replaced with 10% FBS containing the drug every other day. The culture medium with 10% FBS was used as a control. After 5 days, the amount of living cells was measured at 450 nm absorbance using EZ-cytox (DoGen) to compare the cell viability."}, "[1]": {"system": "tyrosine hydroxylase (TH)", "experiment": "Differentiation of pluripotent stem cells into dopaminergic neurons: TH expression", "type": "cell-based", "description": "Pluripotent stem cells were seeded in AggreWell plates (stemcell) at 5,000 cells/microwell and cultured for 5 days in E6 medium (GIBCO) to induce embryonic body (EB) formation. For neural rosette formation, EBs were seeded into 35 mm dishes in groups of 30 and cultured for 10 days in N2bF medium. The 35 mm dishes were used after being coated with 15 µg/ml of poly-L-ornithine (sigma) and 1 µg/ml of fibronectin (sigma). The N2Bf medium composition was DMEM/F12 (GIBCO), N2 supplement (stemcell) 1×, 10% NEAA (GIBCO), 55 µM betaMercaptoethanol (GIBCO), bFGF (peprotech) 20 ng/ml. For the formation of spherical neural masses (SNMs), rosette masses were sliced and cultured in petri dishes with N2bF medium. SNMs were no larger than 500 µM in size and were sliced and cultured for 3 to 4 passages. After subculture of SNM, the clumps were broken into small pieces using a tungsten mesh (Nilaco) for the neural progenitor cell (NPC) culture step, and then attached to a PLO/FN-coated dish and cultured in N2bF medium. To differentiate NPCs into dopaminergic neurons, the medium was replaced with an ITS-B27 medium after 2 days of NPC culture. The ITS-B27 medium composition was DMEM/F12 (GIBCO), D-(+)-glucose (sigma) 1.5 mg/ml, insulin (wako) 5 µg/ml, transferrin (wako) 50 µg/ml, selenite (sigma) 30 nM, GlutaMAX (GIBCO) 2.5%, and B27 (GIBCO) 1×. After 4 days of NPC culture, 200 ng/ml of Sonic Hedgehog and 100 ng/ml of FGF8 (peprotech) were added to the ITS-B27 medium. After 6 days of NPC culture, 200 ng/ml of Sonic Hedgehog, 20 ng/ml of GDNF, 20 ng/ml of BDNF (peprotech), 200 µM of ascorbic acid, and 500 µM of cAMP (sigma) were added to the ITS-B27 medium and cultured for approximately 5 weeks. The compound of formula (1a-1) was treated starting from the stage 2 days after NPC culture. […]\nThe effect of the compound of formula (1a-1) on differentiation into neurons was evaluated by comparing the expression of tyrosine hydroxylase (TH) and dopamine transporter (DAT) depending on the presence or absence of treatment with the compound of formula (1a-1)."}, "TNF-α": {"system": "TNF-α", "experiment": "Serum TNF-α after CLP treatment, ELISA", "type": "in vivo, mouse", "details": "treated at 6 and 16 hours after CLP, serum at 18 hours", "description": "After CLP treatment, the inflammatory cytokines TNF-α and IL-6 were analyzed by ELISA.\nSpecifically, after treating the compound of formula (1a-1) at 6 and 16 hours after CLP treatment, mouse blood was collected at 18 hours and allowed to stand at room temperature for 1 hour, then centrifuged at 3000 rpm for 10 minutes to obtain serum to analyze the amount of TNF-α and IL-6."}, "[2]": {"system": "tyrosine hydroxylase (TH)", "experiment": "TH expression in rotenone-treated differentiated SH-SY5Y dopaminergic neurons, western blot", "type": "cell-based, human", "description": "(§1) To analyze the effect on the expression of tyrosine hydroxylase (TH) and α-synuclein as neuron-specific proteins, western blot was performed.\n(§2) SH-SY5Y cell line was treated with retinoic acid and 12-O-tetradecanoylphorbol-13-acetate (TPA) to induce differentiation into TH-secreting neurons for 6 days.\n(§3) Differentiated dopaminergic neurons were lysed in PRO-PREP (Intronbio), a cell lysis solution containing protease inhibitor cocktail (Gendepot), and electrophoresed in 10% SDS polyacrylamide gels at 20 µg/well. Transfer was performed using PVDF (Merck millipore) as a membrane, and tyrosine hydroxylase antibody, α-synuclein antibody (Cell signaling), and β-actin antibody (Santa Cruz) were used for reaction for more than 2 hours. Protein expression was detected by staining with ECL substrate (Biorad) for development and graphed using the image J program."}, "[3]": {"system": "MYSEC (murine yolk sac endothelial cell) cell lines", "experiment": "In vitro permeability of LPS-treated MYSEC cells (transwell, streptavidin-HRP)", "type": "cell-based", "description": "Permeability was measured by an in vitro method using cell culture and in vivo method using Evans blue dye. To increase permeability, LPS was used in the in vitro method and CLP treatment was used in the in vivo method.\nTo measure permeability by an in vitro method, MYSEC (murine yolk sac endothelial cell) cell lines were used. MYSEC cell lines were placed in the top chamber of a trans well at 2.5×10^5 cells/well and treated with 300 ng of lipopolysaccharide (LPS) derived from Gram-negative bacteria in the presence of the compound of formula (1a-1) for 24 hours. The medium in the top chamber was replaced with 300 µl of serum-free medium containing 5 µl of streptoavidin-HRP. After 5 minutes, 20 µl of the medium in the lower chamber was taken and the activity of HRP was measured as absorbance at 450 nm.\nTo determine the mechanism by which the compound of formula (1a-1) improves permeability, the same experiment was performed by knocking down the SIRT1 protein in the MYSEC cell line."}, "α-synuclein": {"system": "α-synuclein", "experiment": "α-synuclein expression in rotenone-treated differentiated SH-SY5Y dopaminergic neurons, western blot", "type": "cell-based, human", "details": "differentiated dopaminergic neurons treated with rotenone", "description": "as §1, §2, §3"}}}
{"compound": "CCCCCCCCCCCCCC[C@H]1OP(=O)(O)O[C@H]1[C@@H](N)CO.Cl", "note": "[formula (1a-1), (4S,5R)-4-((S)-1-amino-2-hydroxyethyl)-2-hydroxy-5-tetradecyl-1,3,2-dioxaphosphoran-2-oxide hydrochloride]", "values": [{"measurement": "concentration of maximum expression (SIRT1)", "setting": "SIRT1", "result": 100, "unit": "ng/mL"}, {"measurement": "proliferation of nerve cells", "setting": "SH-SY5Y cell lines; 15.6 nM to 500 nM", "result": "increases with increasing concentrations"}, {"measurement": "concentration of maximum proliferative potency", "setting": "SH-SY5Y cell lines", "result": "~100", "unit": "nM"}, {"measurement": "TH expression at early time", "setting": "[1]; 3 weeks of treatment, normally increases after more than 5 weeks of differentiation", "result": "elevated"}, {"measurement": "expression of TH", "setting": "[1]; cell fluorescence immunostaining", "result": "increased"}, {"measurement": "TH expression", "setting": "[1]; western blot of 5-week differentiation sample", "result": "increased"}, {"measurement": "amount of inflammatory cytokine TNF-α", "setting": "TNF-α", "result": "significantly decreased"}, {"measurement": "effectiveness on TH and α-synuclein expression compared with control drug", "setting": "[2]", "result": "more effective than resveratrol"}, {"measurement": "expression of TH decreased by rotenone", "setting": "[2]; differentiated dopaminergic neurons treated with rotenone", "result": "restored"}, {"measurement": "effect on LPS-induced permeability after knockdown of the SIRT1 protein", "setting": "[3]; MYSEC cell line with SIRT1 knockdown, LPS", "result": "does not show the effect"}, {"measurement": "LPS-induced increased permeability", "setting": "[3]; MYSEC cell line, 300 ng LPS, 24 hours", "result": "restores the LPS-induced increased permeability to normal"}, {"measurement": "expression of α-synuclein increased by rotenone", "setting": "α-synuclein", "result": "decreased"}]}
